Legend:
Details in all cases: synthetic library passage 3, intravenous, relative to wild-type AAV9
[1] = test system: brain, spinal cord, and DRG of the NHPs; assay: NGS fold enrichment of synthetic library (passage 3) in NHPs, first cross-species screen; type: in vivo, cynomolgus macaques (Macaca fascicularis)
Procedure: (§1) After creation of the synthetic library with the sub-selected variants, the synthetic library was screened (passage 3) in two NHPs (2-4 years of age) and two strains of mice, BALB/c (n=3, 6-8 weeks of age) and C57Bl/6 mice (n=3, 6-8 weeks of age), in a first cross-species evolution screen. The animals were injected intravenously with the synthetic library. After a period in vivo, (e.g., 28-days) RNA was extracted from nervous tissue, e.g., brain, spinal cord, and DRG of the NHPs and the brains of mice. Following RNA recovery and RT-PCR amplification, a systematic NGS enrichment analysis was performed, and the peptides comprised within the variants were identified and the capsid enrichment ratio for each variant compared to the wild-type AAV9 control was calculated (fold enrichment relative to wild-type AAV9) (Table 9). […] All animals were dosed intravenously at […] across the screen.

brain [2] = assay: NGS fold enrichment of synthetic library (passage 3) in C57Bl/6 mice, first cross-species screen; type: in vivo
Procedure: as §1

brain [3] = assay: NGS fold enrichment of synthetic library (passage 3) in BALB/c mice, first cross-species screen; type: in vivo
Procedure: as §1

[4] = RNA from spinal cord of NHPs, NGS
[5] = RNA from brain of C57Bl/6 mice, NGS
[6] = RNA from brain of BALB/c mice, NGS

Sequence | Fold enrichment over AAV9 in the brain of NHPs ([1]; RNA NGS, brain of NHPs) | Fold enrichment over AAV9 in the spinal cord of NHPs ([1]; RNA NGS, spinal cord of NHPs) | Fold enrichment over AAV9 in the brain of Mice (C57Bl/6) (brain [2]; RNA NGS, brain of C57Bl/6 mice) | Fold enrichment over AAV9 in the brain of Mice (BALB/c) (brain [3]; RNA NGS, brain of BALB/c mice) | Fold enrichment over AAV9 in the brain of NHPs ([1]; RNA from brain of NHPs, NGS) | Fold enrichment over AAV9 in the spinal cord of NHPs [1, 4] | Fold enrichment over AAV9 in the brain of Mice (C57Bl/6) (brain [2]; [5]) | Fold enrichment over AAV9 in the brain of Mice (BALB/c) (brain [3]; [6])
GSGQRSPVLPNQQT | 2.369 fold | 6.230 fold | 0.434 fold | 0.526 fold | – | – | – | –
GSGQSHRQPENQQT | 1.529 fold | 2.153 fold | 0.209 fold | 0.159 fold | – | – | – | –
GSDQNQQLGYSKQT | – | – | – | – | 1.283 fold | 0.000 fold | 0.853 fold | 0.660 fold
GSGQNQQVGSTVRT | 1.124 fold | 2.040 fold | 0.918 fold | 0.614 fold | – | – | – | –
GSGAVHLTAQNQQT | – | – | – | – | 1.306 fold | 1.668 fold | 0.541 fold | 0.466 fold
GSGKVTKQSQNQQT | 1.095 fold | 0.000 fold | 0.928 fold | 1.035 fold | – | – | – | –
GSGQNQQTVSRQST | 1.820 fold | 0.472 fold | 1.330 fold | 0.796 fold | – | – | – | –
GSVHMQNAGQNQQT | 1.034 fold | 3.608 fold | 1.004 fold | 0.625 fold | – | – | – | –
GLRLSTPSGQNQQT | 1.498 fold | 4.334 fold | 0.804 fold | 0.522 fold | – | – | – | –
GSGQNQRATLSNQT | – | – | – | – | 1.339 fold | 1.084 fold | 0.947 fold | 0.723 fold
GQIVQNPSGQNQQT | 3.133 fold | 0.406 fold | 1.446 fold | 0.635 fold | – | – | – | –
GSGQKMWKLDNQQT | – | – | – | – | 1.341 fold | 0.000 fold | 0.990 fold | 1.418 fold
GSLYGQSLGQNQQT | – | – | – | – | 1.348 fold | 11.248 fold | 0.894 fold | 0.843 fold
GSGQMKDLHRNQQT | 1.014 fold | 1.068 fold | 0.587 fold | 0.506 fold | – | – | – | –
GSGLLPLSSQNQQT | 2.612 fold | 1.130 fold | 0.501 fold | 0.293 fold | – | – | – | –
GPGLPNHSGQNQQT | 2.486 fold | 1.992 fold | 1.197 fold | 0.659 fold | – | – | – | –
GSLIGMQSGQNQQT | 1.656 fold | 6.783 fold | 0.797 fold | 0.392 fold | – | – | – | –
GSGQMQSAGSNQQT | 1.482 fold | 0.116 fold | 1.034 fold | 1.128 fold | – | – | – | –
GSSKELLWGQNQQT | 2.163 fold | 0.000 fold | 0.506 fold | 0.883 fold | – | – | – | –

Reference: patent publication US20260250318A1, “COMPOSITIONS AND METHODS FOR CROSSING THE BLOOD BRAIN BARRIER” (VOYAGER THERAPEUTICS, INC., priority 2022, published 2026)
